In ChEMBL document CHEMBL3745643, “Recent Advances in the Discovery of Norovirus Therapeutics” (J Med Chem, 2015):
Peptide text beside a SMILES is read from it. * marks the point of attachment. Pyrrolidide = C1CCN(*)C1; Cbz = O=C(OCc1ccccc1)*

What was measured:
[1] = Inhibition of Norovirus RNA dependent RNA polymerase by spectrophotometry
[2] = tested on: Norovirus; assay: Antiviral activity against Norovirus infected in HuH7 cells assessed as decrease in viral RNA level after 72 hrs by qRT-PCR analysis; assay type: functional, cell-based; conditions: Huh-7, 72 h
[3] = tested on: Norovirus; assay: Antiviral activity against Norovirus infected in HG23 cells assessed as decrease in viral RNA level by qRT-PCR analysis; assay type: functional, cell-based
[4] = Inhibition of recombinant His-tagged Norovirus 3C-like protease for 45 mins followed by addition of 30 uM EDANS-EPDFHLQGPEDLAK-Dabcyl substrate by FRET assay
[5] = Inhibition of Norovirus 3C-like protease by FRET assay

Structure (SMILES): Cc1ccc(C(=O)Nc2ccc(S(=O)(=O)O)c3cccc(S(=O)(=O)O)c23)cc1NC(=O)c1cccc(NC(=O)Nc2cccc(C(=O)Nc3cc(C(=O)Nc4ccc(S(=O)(=O)O)c5cccc(S(=O)(=O)O)c45)ccc3C)c2)c1
- EC50 [1]: 28 nM

Structure (SMILES): Cc1nc(-c2ccccc2)sc1C(=O)Nc1sc2c(c1C#N)CCC2
- EC50 [2]: 30100 nM

Structure (SMILES): C[C@@]1(O)[C@H](O)[C@@H](CO)O[C@H]1n1ccc(N)nc1=O
- EC50 [3]: 18000 nM

Structure (SMILES): CC(C)C[C@H](NC(=O)OCc1ccccc1)C(=O)N[C@@H](Cc1ccccc1)C(=O)N[C@H](C=O)CCC(=O)N1CCCC1 (Cbz-Leu-Phe-Glu(Pyrrolidide)-aldehyde)
- EC50 [4]: 75 nM

Structure (SMILES): CCOC(=O)/C=C/[C@H](C[C@@H]1CCNC1=O)NC(=O)[C@@H](CC(=O)[C@@H](NC(=O)c1cc(C)on1)C(C)C)Cc1ccc(F)cc1 [RUPINTRIVIR]
- EC50 [5]: 23 nM

Structure (SMILES): Cc1ccc(C(=O)Nc2ccc(S(=O)(=O)O)c3cc(S(=O)(=O)O)cc(S(=O)(=O)O)c23)cc1NC(=O)c1cccc(NC(=O)Nc2cccc(C(=O)Nc3cc(C(=O)Nc4ccc(S(=O)(=O)O)c5cc(S(=O)(=O)O)cc(S(=O)(=O)O)c45)ccc3C)c2)c1 [SURAMIN HEXASODIUM]
- EC50 [1]: 27 nM
